Values joined by “and” are separate entries in the source; they are usually repeats but may differ in a detail not shown here. Equal values may be shown once. Read-outs that look alike come from different tables or passages of the source.
Legend:
Assay type in all cases: in vivo
[1] = tested on: Heliothis virescens (tobacco budworm); test: Heliothis virescens ovo-larvicide, feeding/contact, eggs on filter paper in Petri dishes; conditions: single compound, 7 days
Source text: (§1) The action to be expected E for a given active ingredient combination obeys the so-called COLBY formula and can be calculated as follows (COLBY, S.R. “Calculating synergistic and antagonistic responses of herbicide combination”. Weeds, Vol. 15, pages 20-22; 1967):
(§2) ppm=milligrams of active ingredient (=a.i.) per liter of spray mixture X=% action by active ingredient A) using p ppm of active ingredient Y=% action by active ingredient B) using q ppm of active ingredient.
(§3) According to COLBY, the expected (additive) action of active ingredients A)+B) using p+q ppm of active ingredient is
(§4) If the action actually observed (O) is greater than the expected action (E), then the action of the combination is super-additive, i.e. there is a synergistic effect. In mathematical terms the synergism factor SF corresponds to O/E. In the agricultural practice an SF of ≧1.2 indicates significant improvement over the purely complementary addition of activities (expected activity), while an SF of ≦0.9 in the practical application routine signals a loss of activity compared to the expected activity.
Heliothis Virescens (Tobacco Budworm):
(Ovo-Larvicide, Feeding/Contact)
30-35 fresh eggs (0-24 h old), deposited on filter paper, are placed in Petri dishes on top of a layer of artificial diet and 0.8 ml of diluted test solutions are pipetted onto them. After an incubation period of 7 days, samples are checked for egg and larval mortality. 3 replicates per treatment were evaluated.

[2] = tested on: Tetranychus urticae (two spotted spider mite); test: Tetranychus urticae contact/feeding activity on bean plants, adult mortality
Source text: as §1, §2, §3, §4
Tetranychus Urticae (Two Spotted Spider Mite)
(Contact/Feeding Activity)
Bean plants are infested with mite populations of mixed ages. 1 day after infestation, plants are treated in a spray chamber with diluted test solutions. 1 and 8 days later, samples are checked for adult mortality. 2 replicates per treatment were evaluated.

[3] = tested on: Spodoptera littoralis (Egyptian cotton leaf worm); test: Spodoptera littoralis larvicide L1, feeding/contact, cotton leaf discs; conditions: single compound
Source text: as §1, §2, §3, §4
Spodoptera Littoralis (Egyptian Cotton Leaf Worm)
(Larvicide L1, Feeding/Contact)
Cotton leaf discs are placed on agar in Petri dishes and sprayed with test solutions in an application chamber. After drying, the leaf discs are infested with 10 L1 larvae. The samples are checked for mortality 5 days after treatment. 3 replicates per treatment were evaluated. (1 PPM=1 mg l^−1)

[4] = tested on: Heliothis virescens (tobacco budworm); test: Heliothis virescens eggs in 24-well microtiter plate on artificial diet, larval mortality; conditions: Heliothis virescens, 96 h, read-out: AVERAGE DEAD IN %
Source text: as §1, §2, §3, §4
Heliothis Virescens (Tobacco Budworm)
Eggs (0-24 h old) are placed in 24-well microtiter plate on artificial diet and treated with test solutions (DMSO) by pipetting. After an incubation period of 4 days, samples are checked for larval mortality.

[5] = tested on: Tetranychus urticae (two-spotted spider mite); test: Tetranychus urticae bean leaf discs in 24-well microtiter plates, mixed population mortality; conditions: 8 days
Source text: as §1, §2, §3, §4
Tetranychus Urticae (Two-Spotted Spider Mite)
Bean leaf discs on agar in 24-well microtiter plates are sprayed with test solutions (DMSO). After drying, the leaf discs are infested with mite populations of mixed ages. 8 days later, discs are checked for mixed population mortality.

## CCOC(=O)OC1=C(c2cc(C)ccc2C)C(=O)N[C@]12CC[C@@H](OC)CC2 [Spirotetramat, spirotetramat]
[1]; 100 ppm AI
  AVERAGE DEAD IN % (EGGS): 0%
  AVERAGE DEAD IN % (LARVAE): 78%
[1]; 200 ppm AI
  AVERAGE DEAD IN % (EGGS): 67% and 65%
  AVERAGE DEAD IN % (LARVAE): 100% and 98%
[2]; 0.1 ppm alone
  AVERAGE DEAD IN % AFTER 8 DAYS: 10%
[2]; 0.2 ppm alone
  AVERAGE DEAD IN % AFTER 8 DAYS: 33%
[2]; 0.4 ppm alone
  AVERAGE DEAD IN % AFTER 8 DAYS: 38%
[2]; Spirotetramat alone 0.1 ppm AI
  AVERAGE DEAD IN % AFTER 1 DAY: 13%
[2]; Spirotetramat alone 0.2 ppm AI
  AVERAGE DEAD IN % AFTER 1 DAY: 18%
[2]; Spirotetramat alone 0.4 ppm AI
  AVERAGE DEAD IN % AFTER 1 DAY: 23%
[3]; 25 ppm AI
  AVERAGE DEAD IN % AFTER 5 DAYS: 23%
[3]; 50 PPM AI
  AVERAGE DEAD IN % AFTER 5 DAYS: 17% and 33%
[3]; 50 ppm AI
  AVERAGE DEAD IN % AFTER 5 DAYS: 33%
[3]; 100 PPM AI
  AVERAGE DEAD IN % AFTER 5 DAYS: 43% and 67%
[3]; 100 ppm AI
  AVERAGE DEAD IN % AFTER 5 DAYS: 67%
[4]; Spirotetramat alone 6.25 ppm AI
  pest or weed control at 6.25 ppm: 0%
[4]; Spirotetramat alone 12.5 ppm AI
  pest or weed control at 12.5 ppm: 0%
[4]; Spirotetramat alone 25 ppm AI
  pest or weed control at 25 ppm: 0%
[4]; Spirotetramat alone 50 ppm AI
  pest or weed control at 50 ppm: 0%
[4]; Spirotetramat alone 100 ppm AI
  pest or weed control at 100 ppm: 0%
[4]; Spirotetramat alone 200 ppm AI
  pest or weed control at 200 ppm: 0%
[4]; single compound at 6.25 ppm AI
  pest or weed control at 6.25 ppm: 0%
[4]; single compound at 12.5 ppm AI
  pest or weed control at 12.5 ppm: 0%
[4]; single compound at 25 ppm AI
  pest or weed control at 25 ppm: 0%
[4]; single compound at 50 ppm AI
  pest or weed control at 50 ppm: 0%
[4]; single compound at 100 ppm AI
  pest or weed control at 100 ppm: 0%
[4]; single compound at 200 ppm AI
  pest or weed control at 200 ppm: 0%

## CN1COCN(Cc2cnc(Cl)s2)/C1=N\[N+](=O)[O-] [Thiamethoxam, thiamethoxam]
[1]; 100 ppm AI
  AVERAGE DEAD IN % (EGGS): 0%
  AVERAGE DEAD IN % (LARVAE): 78%
[1]; 200 ppm AI
  AVERAGE DEAD IN % (EGGS): 0%
  AVERAGE DEAD IN % (LARVAE): 80%
[2]; 200 ppm alone
  AVERAGE DEAD IN % AFTER 8 DAYS: 5%
[2]; Thiamethoxam alone 200 ppm AI
  AVERAGE DEAD IN % AFTER 1 DAY: 0%
[5]; 25 ppm alone
  AVERAGE DEAD IN %: 0%
[5]; 50 ppm alone
  AVERAGE DEAD IN %: 13%
[5]; 100 ppm alone
  AVERAGE DEAD IN %: 38%
[5]; 200 ppm alone
  AVERAGE DEAD IN %: 0%
[5]; 400 ppm alone
  AVERAGE DEAD IN %: 0%
[5]; 800 ppm alone
  AVERAGE DEAD IN %: 13%
[5]; Thiamethoxam alone, 25 ppm, Table 122
  AVERAGE DEAD IN %: 0%
[5]; Thiamethoxam alone, 50 ppm, Table 122
  AVERAGE DEAD IN %: 13%
[5]; Thiamethoxam alone, 100 ppm, Table 122
  AVERAGE DEAD IN %: 38%
[5]; Thiamethoxam alone, 200 ppm, Table 122
  AVERAGE DEAD IN %: 0%
[5]; Thiamethoxam alone, 400 ppm, Table 122
  AVERAGE DEAD IN %: 0%
[5]; Thiamethoxam alone, 800 ppm, Table 122
  AVERAGE DEAD IN %: 13%
[3]; 0.2 PPM AI
  AVERAGE DEAD IN % AFTER 5 DAYS: 7% and 10%
[3]; 0.2 ppm AI
  AVERAGE DEAD IN % AFTER 5 DAYS: 10%
[3]; 0.4 PPM AI
  AVERAGE DEAD IN % AFTER 5 DAYS: 13%
[3]; 0.4 ppm AI
  AVERAGE DEAD IN % AFTER 5 DAYS: 13%
[3]; 0.8 PPM AI
  AVERAGE DEAD IN % AFTER 5 DAYS: 30%
[3]; 0.8 ppm AI
  AVERAGE DEAD IN % AFTER 5 DAYS: 30%
[4]; Thiamethoxam alone 6.25 ppm AI
  pest or weed control at 6.25 ppm: 0%
[4]; Thiamethoxam alone 12.5 ppm AI
  pest or weed control at 12.5 ppm: 0%
[4]; Thiamethoxam alone 25 ppm AI
  pest or weed control at 25 ppm: 0%
[4]; Thiamethoxam alone 50 ppm AI
  pest or weed control at 50 ppm: 0%
[4]; Thiamethoxam alone 100 ppm AI
  pest or weed control at 100 ppm: 25%
[4]; Thiamethoxam alone 200 ppm AI
  pest or weed control at 200 ppm: 65%
[4]; single compound at 6.25 ppm AI
  pest or weed control at 6.25 ppm: 0%
[4]; single compound at 12.5 ppm AI
  pest or weed control at 12.5 ppm: 0%
[4]; single compound at 25 ppm AI
  pest or weed control at 25 ppm: 0%
[4]; single compound at 50 ppm AI
  pest or weed control at 50 ppm: 0%
[4]; single compound at 100 ppm AI
  pest or weed control at 100 ppm: 25%
[4]; single compound at 200 ppm AI
  pest or weed control at 200 ppm: 65%
